For one experiment, the target named is GFP-Nur77 (Homo sapiens, UniProt P22736). As to the kind of experiment: GFP-Nur77 localization in transfected HEK293T cells. In kind it is cell-based. Particulars: HEK293T cells transfected with GFP-Nur77, 0.5 μM. How it is done:
(§1) Cells were fixed in 3.7% paraformaldehyde. For mitochondrial staining, cells were incubated with anti-Hsp60 goat immunoglobulin G (IgG) (Santa Cruz Biotechnology, Santa Cruz, Calif.), followed by anti-goat IgG conjugated with Cy3. The nuclei were visualized by DAPI staining. Fluorescent images were collected and analyzed by using a fluorescence microscopy or MRC-1024 MP laser-scanning confocal microscope (Bio-Rad, Hercules, Calif.).
(§2) To confirm the effect of Compound 1 on Nur77 cytoplasmic localization, HEK293T cells were transfected with GFP-Nur77 and subsequently treated with 0.5 μM Compound 1.

The test system of another experiment is pBind-RXRa-LBD and Nur77. As to the kind of experiment: Mammalian one hybrid assay, Gal4-RXRa-LBD with Nur77. To be noted: cotransfection of pBind-RXRa-LBD and Nur77, Dual-Luciferase (FIG. 10). Type of experiment: cell-based. How it is done: HEK293T cells were co-transfected with pG5 Luciferase reporter together with the plasmid encoding RXRa-LBD fused with the Gal4 DNA-binding domain and other expression plasmids. After transfection, cells were treated with DMSO or a test compound, and assayed by using the Dual-Luciferase Reporter Assay System (Promega). Transfection efficiency was normalized to Renilla luciferase activity.
To exclude the possibility that Compound 1 acted on RXRa, Glu453 and Glu456 in the RXRa activation function 2 (AF2) region were substituted with Ala and the resulting mutant, RXRa-LBD/E453,6A, was used.

The subject of the next experiment is Nur77−/−MEFs. As to the kind of experiment: PARP cleavage, Nur77-/- MEFs. In kind it is cell-based, mouse. To be noted: 0.5 μM. How it is done:
The apoptotic effect of Compound 1 was examined in mouse embryonic fibroblast (MEF) and MEF lacking Nur77 (Nur77^−/−MEF). […] Induction of PARP cleavage (as performed in Example A-7) in MEFs by Compound 1 at 0.5 μM was also attenuated in Nur77^−/−MEFs.

Experiment [1] concerns mTOR markers p-S6 and p-4EBP1. As to the kind of experiment: mTOR inhibition: expression of mTOR markers. Type of experiment: cell-based. Particulars: MDA-MB-231 cells, 6 hours.
Another experiment concerns the target T1, Nur77 (Homo sapiens, UniProt P22736).
T1 construct: expressed in transfected cells
As to the kind of experiment: Immunostaining of Nur77 localization, HCT116. In kind it is cell-based. Particulars: HCT116 cells, 0.5 μM, 2 hours. The protocol:
as §1, §2

Another experiment deals with Bcl-2−/−HeLa cells. The experiment is described as follows: Mitochondrial membrane potential (JC1), Bcl-2 knockout HeLa. To be noted: 0.5 μM, 6 h. In kind it is cell-based. How it is done:
(§3) Loss of mitochondrial membrane potential (Avm) represents one of the hallmarks of apoptosis. A JC-1 probe was employed to measure mitochondrial depolarization in cancer cells. MDA-MB-231 breast cancer cells were treated with different concentration of test compounds for 6 hours. JC-1 staining solution (5 μg/ml) was added at 37° C. for 20 min. After washing with PBS twice, mitochondrial membrane potentials were monitored by determining the relative amounts of dual emission from a multiple fluorescence reader. The fluorescence in cells was quantitatively analyzed by flow cytometry. Mitochondrial depolarization is depicted by an increase in the green/red fluorescence intensity ratio. ROS were monitored with the oxiadtion-senstive fluorescent probe 2′7′-dichlorodihydroflurescenin diacetate (DCF-DA).
(§4) In addition, Bcl-2^−/−HeLa cells were more resistant than the parental HeLa cells to Compound 1 in its induction of the mitochondrial membrane potential loss measured by JC1 staining and in the release of mitochondrial ROS (as performed in Example A-12).

The next experiment has as its system SW620 xenograft tumor. As to the kind of experiment: SW620 xenograft nude mouse study. Type of experiment: in vivo, BALB/c nude mice. The protocol: Male BALB/c nude mice (6 weeks old) were subcutaneously injected with log growth-phase of SW620 cells (1×10^6 cells in 0.1 ml PBS). Mice were treated orally after 7 days of transplantation with Compound 1 once a day. Body weight and tumor size were measured every 3 days. Tumors were measured and weighted. Tissues isolated from the nude mice were fixed with 4% paraformaldehyde. TdT-mediated dUTP nick end labeling assay was performed according to the manufacturer's instructions (In situ Cell Death Detection Kit; Roche).

A further experiment concerns MDA-MB-231 cancer cells. The experiment is described as follows: Cell viability (MTT) assay, MDA-MB-231. In kind it is cell-based. Particulars: Homo sapiens; inhibiting the growth of MDA-MB-231 cancer cells, cell viability assay (Table 6). How it is done:
Cell viability was analyzed by using a colorimetric 3-(4,5-dimethylthiazol-[…]2-yl)-2,5-diphenyletetrazolium Bromide (MTT) assay that determines mitochondrial dehydrogenase activities in the living cells with a colorimetric method. Cells treated with test compounds were incubated with MTT and their effect on the viability of the cells was assayed by the ability of treated cells to reduce the yellow tetrazolium dye MTT to its insoluble formazan, which has a purple color. […]

The subject of a further experiment is Bcl-2−/− HeLa cells. The experiment is described as follows: Mitochondrial ROS, Bcl-2 knockout HeLa. Type of experiment: cell-based. The protocol:
as §3, §4

For experiment [2], the system named is breast cancer cell lines (MDA-MB-231, BT549, HCC 1937, ZR-75-1, T47D, MCF-7). As to the kind of experiment: Cell viability (MTT) in various breast cancer cell lines. Type of experiment: cell-based. To be noted: 24 hours, FIG. 1E; regardless of hormone dependency. The protocol:
Cell viability was analyzed by using a colorimetric 3-(4,5-dimethylthiazol-[…]2-yl)-2,5-diphenyletetrazolium Bromide (MTT) assay that determines mitochondrial dehydrogenase activities in the living cells with a colorimetric method. Cells treated with test compounds were incubated with MTT and their effect on the viability of the cells was assayed by the ability of treated cells to reduce the yellow tetrazolium dye MTT to its insoluble formazan, which has a purple color.
Compound 1 was effective in various breast cancer cell lines analyzed regardless of its hormone dependency, including MDA-MB-231 cells, BT549 cells, HCC 1937 cells, ZR-75-1 cells, T47D cells, and MCF-7 cells (FIG. 1E).

Experiment [3] concerns non-transfected HEK293T cells. As to the kind of experiment: Apoptosis in non-transfected HEK293T cells (confocal microscopy). Type of experiment: cell-based. The source says: (§5) The ligand-binding domain (LBD) of Nur77, Nur77-LBD, was transfected into HEK293T cells. Transfection of Nur77-LBD enhanced the apoptotic effect of Compound 1, with 36% of the transfected HEK293T cells undergoing apoptosis, while 4.5% of the non-transfected cells were apoptotic, as measured by confocal microscopy.

For experiment [4], the system named is HEK293T cells transfected with Nur77-LBD. As to the kind of experiment: Apoptosis in HEK293T cells transfected with Nur77-LBD (confocal microscopy). Type of experiment: cell-based.
Excerpt: as §5

Some results are limits rather than exact numbers.

Chain of GFP-Nur77 (P22736 whole entry): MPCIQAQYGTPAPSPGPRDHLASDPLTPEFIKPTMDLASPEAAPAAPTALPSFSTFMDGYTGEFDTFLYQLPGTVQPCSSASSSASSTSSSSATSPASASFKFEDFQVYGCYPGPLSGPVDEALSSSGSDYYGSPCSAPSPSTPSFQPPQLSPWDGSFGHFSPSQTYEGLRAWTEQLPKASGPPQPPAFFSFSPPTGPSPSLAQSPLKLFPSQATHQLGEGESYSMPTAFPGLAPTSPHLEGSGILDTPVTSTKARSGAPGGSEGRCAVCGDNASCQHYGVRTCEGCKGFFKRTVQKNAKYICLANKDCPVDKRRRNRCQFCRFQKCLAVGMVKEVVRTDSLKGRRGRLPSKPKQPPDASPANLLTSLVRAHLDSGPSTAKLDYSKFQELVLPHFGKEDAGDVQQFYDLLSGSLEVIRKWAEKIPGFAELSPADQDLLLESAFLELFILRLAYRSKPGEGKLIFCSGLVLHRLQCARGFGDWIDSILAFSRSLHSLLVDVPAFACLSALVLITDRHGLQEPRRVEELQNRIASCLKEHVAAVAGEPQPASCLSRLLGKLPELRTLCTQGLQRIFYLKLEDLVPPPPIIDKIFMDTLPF
T1 sequence (P22736 whole entry): as above

As usually defined, the IC50 is the concentration that gives 50% inhibition. Read a high IC50 as a need for much substance. Regarding `FC(F)(F)c1ccc([C+](c2c[nH]c3ccccc23)c2c[nH]c3ccccc23)cc1` [Compound 1, Bis(1H-indol-3-yl)(4-(trifluoromethyl)phenyl)methylium methanesulfonate], on GFP-Nur77, the GFP-Nur77 subcellular localization entry was “diffusely distributed in both the cytoplasm and nucleus”. Moreover, the reporter transcriptional activity result in the experiment with pBind-RXRa-LBD and Nur77 is given as “dose dependently induced the reporter activity”. The “induction of PARP cleavage relative to MEFs” value in the experiment with Nur77−/−MEFs was “attenuated”. The “expression levels of mTOR marker p-4EBP1” value in experiment [1] (0.75 μM) is listed as “reduced the expression levels”. Further, the “expression levels of mTOR markers p-S6 and p-4EBP1” value in experiment [1] (1 μM) is on record as “reduced the expression levels”. Besides, the “Nur77 subcellular localization (immunostaining)” value at Nur77 is given as “predominantly cytoplasmic”. The “JC1 green to red ratio” value in the experiment with Bcl-2−/−HeLa cells is “no change”. For the same compound, the “apoptosis in tumor specimens (TUNEL assay)” value with SW620 xenograft tumor (SW620 xenograft, compared to control tumor) is recorded as “extensive apoptosis”. The “growth of SW620 xenograft tumor” value in the experiment on SW620 xenograft tumor (nude mice, oral, once a day (FIGS. 6A-6B)) was “inhibited the growth of SW620 xenograft tumor in a dose and time-dependent manner”. Also, the IC50 in the experiment with MDA-MB-231 cancer cells is < 500 nM. The “increase in mito-ROS relative to regular HeLa cells” value in the experiment on Bcl-2−/− HeLa cells is on record as “smaller increase”. Besides, the “cell viability (MTT)” value in [2] is reported as “effective”. For the same compound, the apoptotic cells in experiment [3] turned out to be 4.5%. Besides, the cells undergoing apoptosis in experiment [4] was determined as 36%.

These data come from patent US20210024499A1, “OXIDIZED BIS(3-INDOLYL)METHANES AND USES THEREOF” (Sanford Burnam Prebys Medical Discovery Institute, priority 2018, published 2021).
